In article PMC12867150, “A fungi-derived cyclic peptide enhances Th9-mediated antitumor immunity by targeting ZAP70 and SREBP1” (The Journal of Clinical Investigation, 2025):
“And” between values parts separate entries of the source, which are not always exact repeats. Identical values can stand only once.

System: transferred CD45.1+ OT-II Th9 cells
Test: Flow cytometry of transferred CD45.1+ OT-II Th9 cells in spleen, LN, tumor (Figure 2B-C, S1C-E)
Type: in vivo, mouse
Details: for Frequencies of transferred CD45.1⁺ OT-II Th9 cells among CD45⁺ cells in LN: Supplemental Figure 1D left; for number of transferred CD45.1⁺ OT-II Th9 cells among CD45⁺ cells in LN: Supplemental Figure 1D right; for CD45.1+ gate number: representative flow plot
Method: C57BL/6 mice were subcutaneously injected with 5 × 10^5 B16-OVA melanoma cells. Five days after tumor implantation, mice received an intravenous infusion of 2 × 10^6 in vitro–differentiated Th9 cells (cultured for 5 days), which were derived from OT-II CD45.1 donor mice, accompanied by 4 × 10^5 OVA peptide–pulsed DCs via the tail vein. To enhance T cell engraftment and facilitate lymphodepletion, a single intraperitoneal injection of cyclophosphamide (200 mg/kg, Sigma, catalog C0768) was administered 1 day prior to T cell transfer. Mice were euthanized at designated time points for the collection and analysis of spleens, tumor-draining lymph nodes, and tumor tissues.
Details regarding staining panels (human and mouse), reagents (including clones and catalog numbers), acquisition settings, compensation/controls, and analysis procedures are provided in Supplemental Methods.
BioLegend, Cat. No. 422301 or Mouse TruStain FcX™, BioLegend, Cat. No. 101319) for 10 minutes at 4°C. For surface marker detection, cells were stained with fluorochrome-conjugated monoclonal antibodies in 96-well V-bottom plates and incubated on ice for 30 minutes. After staining, cells were washed twice and resuspended in FACS buffer for analysis.
Prior to intracellular cytokine staining, cells were restimulated for 4 hours with PMA (Absin, Cat. No. abs9107), ionomycin (Sigma-Aldrich, Cat. No. I0634), and brefeldin A (MedChemExpress, Cat. No. HY-16592). For intracellular cytokine staining, cells were first surface-stained as described above, then fixed and permeabilized using the BD Cytofix/Cytoperm™ kit (BD Biosciences, Cat. No. 554714) according to the manufacturer ’s protocol. Intracellular proteins were stained with directly conjugated antibodies targeting IL-9, IL-17a, IL-4, IFN-γ, TNF-α, FOXP3, p-ZAP70, Perforin, and […]
Antibodies used for mouse samples included those against IL-9 (PE, clone RM9A4, Biolegend, Cat. No. 514104), IFN-γ (PE, clone XMG1.2, Biolegend, Cat. No.
Cat. No. 103138), CD4 (APC/Cy7, clone E-AB-F1353UJ, Elabscience, Cat. No.
AF18028), CD8α (PerCP/Cy5.5, clone E-AB-F1104UJ, Elabscience, Cat. No. […]
clone E-AB-F1187UH, Elabscience, Cat. No. AF19854), TNF-α (BV421, clone MP6-XT22, Biolegend, Cat. No. 506328), FOXP3 (PE, clone FJK-16s, eBioscience, Cat. No.
Perforin (APC, clone S16009A, Biolegend, Cat. No. 154303) and Granzyme B (APC, […]
clone QA16A02, Biolegend, Cat. No. 372203). […]
Figure S1. EpA enhances immune responses. […]
Representative flow-cytometric plots showing transferred CD45.1⁺ OT-II Th9 cells in spleens (C), tumor-draining lymph nodes (LNs) (D), and tumors (E); frequencies Figure S1 and absolute numbers of CD45.1⁺ OT-II Th9 cells in LNs are quantified in (D). (F– […]
Statistical analysis was performed using two-way ANOVA with Tukey’s post hoc test (A), one-way ANOVA with Tukey’s post hoc test (B) or two-tailed unpaired Student’s t-test (D and G–M). ns, not significant. *p < 0.05, **p < 0.01, ****p < 0.0001.
(also on this page, place not known: Mouse weight (g) CtrlEpA CtrlEpA CtrlEpA0 I CD45.1+ T cells (%) CtrlEpA CD4+ T cells (%) CtrlEpA CtrlEpA CtrlEpA FSC CD8 CD8 FSC FSC FSC BNumber of CD45.1+ T cells (×103 per mgĎ Number of CD4+ T cells (×104 per mgĎ DC (%)NK cells (%) NK cells (%) DC (%) Number of DC (×103 per mg) Number of NK cells (×105) Number of NK cells (×103 per mg) Number of DC (×105) FSC FSC FSC CD8 CtrlEpA CtrlEpA CtrlEpA CD8+ T cells (%) Number of CD8+ T cells (×104 per mgĎ nsns ns nsns ns 40 IL-6 (pg/ml)) […]

[1] = spleens, individual mice, n = 4

anteiso-C15 Leu7 surfactin [EpA]
Frequencies of transferred CD45.1⁺ OT-II Th9 cells among CD45⁺ cells in LN (LN, replicate 1): 25.5% | Frequencies of transferred CD45.1⁺ OT-II Th9 cells among CD45⁺ cells in LN (LN, replicate 2): 16.2% | Frequencies of transferred CD45.1⁺ OT-II Th9 cells among CD45⁺ cells in LN (LN, replicate 3): 15.5% | Frequencies of transferred CD45.1⁺ OT-II Th9 cells among CD45⁺ cells in LN (LN, replicate 4): 16.6% | number of transferred CD45.1⁺ OT-II Th9 cells among CD45⁺ cells in LN (LN, replicate 1): 12444.4 | number of transferred CD45.1⁺ OT-II Th9 cells among CD45⁺ cells in LN (LN, replicate 2): 12569.8 | number of transferred CD45.1⁺ OT-II Th9 cells among CD45⁺ cells in LN (LN, replicate 3): 11818.2 | number of transferred CD45.1⁺ OT-II Th9 cells among CD45⁺ cells in LN (LN, replicate 4): 11251.4 | CD45.1+ gate number (LN, Figure S1D): 15.5% | CD45.1+ gate number (Spleen, Figure S1C): 11.7% | CD45.1+ gate number (Tumor, Figure S1E): 6.7% | expansion of transferred cells (lymph nodes, result in words): moderately in the lymph nodes | expansion of transferred cells (spleen, result in words): expanded robustly in the spleen | Total CD45.1(%) among CD45+ cells [1]: 11.1% and 9.13% and 7.88% and 11.8% | number of CD45.1+ T cells [1]: 854404 and 834158 and 848241 and 1565169 | CD45.1 (%) among CD4+ cells (tumors, individual mice, n = 4): 6.68% and 1.49% and 0.81% and 0.8% | number of CD45.1+ OT-II Th9 cells (tumors, individual mice, n = 4): 16 and 22 and 24 and 15 | absolute number of transferred cells (tumors, result in words): markedly increased | frequency of transferred cells (tumors, result in words): remained comparable
